The subject of series [1] is tk locus of L5178Y mouse lymphoma cells. The series is classed as cell-based. Particulars: 10 μg/ml. The text has this: The MLA assay evaluates the mutagenic potential of the tested oils based on quantitation of forward mutations at the tk locus of L5178Y in mouse lymphoma cells. The mutagenicity of the test agents is indicated by the increase in the number of mutants after treatment. The tk enzyme is responsible for incorporating exogenous thymidine via a salvage pathway, into the cell in the form of thymidine monophosphate. Analogues of thymidine, such as trifluorothymidine (TFT) can also be phosphorylated by tk enzyme, which leads to cell toxicity. Forward mutation at this locus results in a loss of tk activity and subsequent resistance to TFT, which is used as the selective agent to kill wild type cells. Thus the tk mutants are not killed by TFT and are able to survive due to their ability to synthesize […] de novo.
The objective of the MLA assay was to study the inhibitory effect of Fat blend 6 (Table 2) on the incidence of mammalian cell gene mutations. Each group of L5178Y cells was incubated with one of the tested oils, i.e. with Fat blend 6 or with oil containing low palmitic acid (LPO), and the incidence of specific mutations was examined using the MLA assay. The study experiments were performed with a constant concentration of reference mutagen. Additionally, several concentrations of the test items were used. Positive and negative controls were included in the experiment.
Study procedure: 1×10^7 cells/culture (80 cm^2 flasks) were exposed to several concentrations of tested oil in the presence of the mutagen (10 μg/ml MMS) in parallel to the negative and positive controls (Table 6, FIG. 2). Cells were incubated with the tested oil and mutagen for 3-4 hours to induce and increase the efficiency of anti-mutagenesis effect. Following the incubation, the mutagen was removed by centrifugation (400 g, 5 min) and the cells were washed twice. Subsequently the cells were re-suspended in growth medium for an expression period of 4 days. Following expression period, cultures were seeded in selective medium (containing TFT). Cells from each experimental group were seeded in four 96-well plates at a density of 2000 cells/well in selective medium. After an incubation period of 11 days at 37±1° C., 5±0.5% CO2 and 95±5% humidified atmosphere, the number of colony containing/empty wells was scored using microscope. The colonies size and/or morphology were also characterized. The inhibitory effect of the 2 tested oils was evaluated using the following criteria: (a) a decrease of Mutation Frequencies in the presence of tested oil related to the positive control. (b) Decreased occurrence of small colonies (slow growth colonies) indicated by a high large/small colonies ratio was an indication for inhibitory potential clastogenic effects and/or chromosomal aberrations.
The study was conducted based on the Ninth Addendum to OECD Guidelines for Testing of Chemicals, Section 4, No. 476, “In Vitro Mammalian Cell Gene Mutation Test”, adapted 21 Jul. 1997. This type of study was used in Whittaker P, Evaluation of commercial kava extracts and kavalactone standards for mutagenicity and toxicity using the mammalian cell gene mutation assay in L5178Y mouse lymphoma cells, Food Chem. Toxicol. 2007.

The conditions of series [2]: palmitic acid in yoghurt; Nadathur et al. 1996; cited from earlier work.
Series [3] has as its system squamous cell carcinoma (SCC). Conditions: Harris et al. 2005; cited from earlier work.

Results on 3 molecules are retold here after patent US20090131523A1, “Lipid compositions for the treatment and prevention of proliferative diseases and for the reduction of incidences of mutagenesis and carinogenesis” (Enzymotec Ltd., priority 2007, published 2009).

In the case of `COS(C)(=O)=O` [MMS, methyl methane sulfonate], in series [1], the “% change in mutants compare to MMS treat” value was determined as 100%, the “Colony Sizing Large/small” value is 1.53, the “Mutants/10^6 cells” value was determined as 489 per 10^6 cells and the Mutation factor came to 12. In series [1], the “relative suspension growth (RSG)” value was 65.8%.

As to `CCCCCCCCCCCCCCCC(=O)O` [palmitic acid], in series [2], the anti-MNNG activity result was “exerts anti-N-methyl-N′-nitro-N-nitrosoguanidine (MNNG) activity”. Also, the “association of increasing dietary proportions with squamous cell carcinoma” value in series [3] is recorded as “associated with reduced squamous cell carcinoma (SCC)”.

Consider `CCCCCC/C=C\CCCCCCCC(=O)O` [palmitoleic acid], for which the “association of increasing dietary proportions with squamous cell carcinoma” value in series [3] is given as “associated with reduced squamous cell carcinoma (SCC)”.
